Experimental data as given in patent US7276248B2, “Conjugate having a cleavable linkage for use in a liposome” (ALZA Corporation, priority 1999, dated 2007).
Read-outs that look alike come from different tables or passages of the source.

Tests used:
[1] = In vivo pharmacokinetics in rats after single bolus intravenous injection; details: time points greater than about 5 minutes
Method: The in vivo pharmacokinetics of the liposomes containing cholesterol and the cholesterol-free liposome formulation was determined in rats.
Eight rats were randomized into treatment groups as follows:
A single intravenous injection of the test formulation was administered as a bolus dose. Blood samples were taken from each animal at the following times after injection: 30 seconds, 15 minutes, 30 minutes, 1 hour, 2 hours, 4 hours, 8 hours, 24 hours, 48 hours, 72 hours and 96 hours. […] A 200 mM iodoacetamine solution was prepared by placing 199.3 mg of iodoacetamide in 5.1 mL of 7.5% EDTA. 15 μL of the 200 mM iodoacetamide solution was placed in each 1 μL of blood sample.
The final volume was adjusted to 1 mL with methanol. […] The samples were spun down at 3,000 rpm for 10 minutes at room temperature. 300 μL of supernatant was transferred to HPLC vials containing 300 μL insert for injection.
100 μL of plasma sample was denatured with 900 μL of methanol followed by centrifugation for 10 minutes at 3,000 rpm. […]
Peak area and retention times were determined by the PE-Nelson Turbochrom (Version 4.1) system. […] The linearity of the method was evaluated suing standard responses from six concentration levels. […] The precision and accuracy of the method were evaluated from the back-calculated concentrations of the standards as well as from the quality control samples.

[2] = system: M109 cells, a mouse lung carcinoma line; assay: In vitro cytotoxicity / growth rate of M109 cells, methylene blue staining, 72 hour continuous exposure; assay type: cell-based; details: read-out: IC50 Values for M109 tumor cells after 72 hour culture with continuous exposure to formulation
Method: IC50 values were taken as the drug concentration which caused a 50% inhibition of the control growth rate (IC50), as described in Example 6.
Upon completion of the assay, the cells were fixed and evaluated using the methylene blue staining assay.
In the assay, 1500 M109 mouse carcinoma cells from exponentially growing cultures in 200 μl aliquots (RPMI-1640 medium+10% fetal bovine serum) were plated onto 96 well flat-bottom microtiter plates. […] For each 10-fold increase in drug concentration, four drug concentration points were tested. Each test was performed in triplicate wells and in two parallel plates. The cells were treated continuously for 72 hours.
After the 72 hour treatment period, the cultures were fixed by the addition of 50 μl 2.5% glutaraldehyde to each well for 10 minutes. […] The dye was extracted with 200 μl 0.1 N HCl for 60 minutes at 37° C. and the optical density was determined using a microplate spectrophotometer.
The cell number determined by counting cells with a hemocytometer correlated well with the spectrophotometric absorbance. The initial cell plating density was chosen to ensure a linear relationship between cell number and absorbance at the end of the study. In each study, six wells were fixed before drug was added to determine the initial average absorbance. […]
The growth rate was calculated as GR=(ln 2/DT). […]

CO[C@@]12[C@H](COC(N)=O)C3=C(C(=O)C(C)=C(N)C3=O)N1C[C@@H]1N[C@@H]12 [free MMC, mitomycin C]
dose remaining in the blood [1]: Virtually none
IC50 ([2]; Cysteine Concentration 0): 285 ± 92 nM
IC50 ([2]; Cysteine Concentration 1000 μM): 300 ± 71 nM
